Data published in patent US20030003488A1, “Regulation of human mitochondrial deformylase” (priority 1999, published 2003).

tested on: human mitochondrial deformylase; experiment: Expression of mitochondrial deformylase by Western blotting in antisense-treated HCT 116 cells; format: cell-based; settings: 10 micromolar once per day for seven days

Row | Substance | expression of the mitochondrial deformylase as determined by Western blotting
1 | 5′-AAAATGCAGGTAAGCATGTGAAAA-3′ [oligonucleotide (2)] | significantly reduced expression
2 | 5′-CAGCGATTTAAATACGGAACAAGG-3′ [oligonucleotide (1)] | significantly reduced expression
3 | 5′-TCAACTGACTAGATGTACATGGAC-3′ (DNA TCAACTGACTAGATGTACATGGAC; chemistry not given here) [oligonucleotide (3), reference compound] | not observed
